Source: US9434711B2 (Janssen Pharmaceutica, NV, priority 2007, dated 2016)

Target: canine TRPM8 (Canis lupus familiaris, UniProt Q1A7N1)
Assay: In Vitro Canine TRPM8 Functional Assay (Ca2+ fluorescence, icilin activation)
Assay type: cell-based
Details: for IC50: HEK293 cells stably expressing canine TRPM8, icilin activation, eight-point dose-response, read-out: IC50; for inhibition at 0.2 µM / % Inh @ 0.2 (μM): compound at 0.2 μM, canine TRPM8, icilin activation; for inhibition at 0.2 µM: read-out: % Inh @ 0.2
Method in brief: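 Eight-point dose-response curves in quadruplicate gave EC50 or IC50 values from a Ca2+-sensitive dye assay in HEK293 cells stably carrying canine TRPM8. Icilin, dosed near its 80% maximal level, followed a 5 min compound exposure.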

canine TRPM8, sequence (Q1A7N1 1-1104): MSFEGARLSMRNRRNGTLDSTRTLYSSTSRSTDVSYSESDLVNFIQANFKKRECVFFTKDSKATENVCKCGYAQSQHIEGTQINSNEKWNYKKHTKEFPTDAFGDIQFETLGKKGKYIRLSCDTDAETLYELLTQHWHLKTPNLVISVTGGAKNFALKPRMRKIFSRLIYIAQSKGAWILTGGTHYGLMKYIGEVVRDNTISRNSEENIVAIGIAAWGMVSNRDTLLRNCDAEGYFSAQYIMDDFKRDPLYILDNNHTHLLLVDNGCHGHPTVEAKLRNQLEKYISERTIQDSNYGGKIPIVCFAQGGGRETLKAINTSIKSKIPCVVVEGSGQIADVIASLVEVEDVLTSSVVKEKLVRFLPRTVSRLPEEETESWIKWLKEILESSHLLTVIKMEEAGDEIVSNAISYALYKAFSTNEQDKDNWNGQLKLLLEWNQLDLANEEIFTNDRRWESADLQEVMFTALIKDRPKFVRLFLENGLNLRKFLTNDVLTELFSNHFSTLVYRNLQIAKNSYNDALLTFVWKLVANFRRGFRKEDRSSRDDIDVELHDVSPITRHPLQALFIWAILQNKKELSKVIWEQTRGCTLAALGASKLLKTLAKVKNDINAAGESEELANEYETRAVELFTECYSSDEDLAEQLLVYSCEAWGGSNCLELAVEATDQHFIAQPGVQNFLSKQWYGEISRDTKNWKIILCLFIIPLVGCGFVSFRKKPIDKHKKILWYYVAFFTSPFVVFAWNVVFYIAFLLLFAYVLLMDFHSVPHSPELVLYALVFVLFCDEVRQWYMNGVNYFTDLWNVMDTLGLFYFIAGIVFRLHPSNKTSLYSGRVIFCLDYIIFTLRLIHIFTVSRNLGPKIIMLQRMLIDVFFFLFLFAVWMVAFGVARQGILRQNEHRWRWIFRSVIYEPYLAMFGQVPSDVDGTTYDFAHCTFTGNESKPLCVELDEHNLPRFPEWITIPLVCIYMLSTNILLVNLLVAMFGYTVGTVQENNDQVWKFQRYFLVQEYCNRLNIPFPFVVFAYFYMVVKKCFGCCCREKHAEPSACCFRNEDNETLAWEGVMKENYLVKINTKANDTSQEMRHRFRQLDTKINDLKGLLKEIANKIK

IC50 [nM] | inhibition at 0.2 µM [%] | Structure (SMILES) | % Inh @ 0.2 (μM) [%]
4 | 102 | O=c1[nH]c(-c2ccc(S(=O)(=O)N(Cc3ccc(F)c(C(F)(F)F)c3)c3sc4ccccc4c3Cl)cc2)no1 [Compound 512, N-(3-Chloro-benzo[b]thiophen-2-yl)-N-(4-fluoro-3-trifluoromethyl-benzyl)-4-(5-oxo-4,5-dihydro-[1,2,4]oxadiazol-3-yl)-benzenesulfonamide] | 
2 | 102 | Cc1c(N(Cc2cc(F)c(F)c(F)c2)S(=O)(=O)c2ccc(C(=O)O)cc2)sc2ccccc12 [Compound 517, N-(3-Methyl-benzo[b]thiophen-2-yl)-N-(3,4,5-trifluoro-benzyl)-4-carboxy-benzenesulfonamide] | 
0.7 | 101 | Cc1c(N(Cc2ccc(C(F)(F)F)cc2)S(=O)(=O)c2ccc(C(=O)O)cc2)sc2ccccc12 [Compound 518, N-(3-Methyl-benzo[b]thiophen-2-yl)-N-(4-trifluoromethyl-benzyl)-4-carboxy-benzenesulfonamide] | 
6 | 102 | Cc1c(N(Cc2cc(C(F)(F)F)ccc2F)S(=O)(=O)c2ccc(C(=O)O)cc2)sc2ccccc12 [Compound 519, N-(3-Methyl-benzo[b]thiophen-2-yl)-N-(2-fluoro-5-trifluoromethyl-benzyl)-4-carboxy-benzenesulfonamide] | 
 | 102 | Cc1c(N(Cc2cc(Cl)ccc2Cl)S(=O)(=O)c2ccc(C(=O)O)cc2)sc2ccccc12 [Compound 520, N-(3-Methyl-benzo[b]thiophen-2-yl)-N-(2,5-dichloro-benzyl)-4-carboxy-benzenesulfonamide] | 
2 | 101 | Cc1c(N(Cc2ccc(Cl)c(F)c2)S(=O)(=O)c2ccc(C(=O)O)cc2)sc2ccccc12 [Compound 521, N-(3-Methyl-benzo[b]thiophen-2-yl)-N-(4-chloro-3-fluoro-benzyl)-4-carboxy-benzenesulfonamide] | 
4 | 101 | Cc1c(N(Cc2ccc(F)cc2C(F)(F)F)S(=O)(=O)c2ccc(C(=O)O)cc2)sc2ccccc12 [Compound 522, N-(3-Methyl-benzo[b]thiophen-2-yl)-N-(4-fluoro-2-trifluoromethyl-benzyl)-4-carboxy-benzenesulfonamide] | 
 | 101 | COc1ccc(CN(c2sc3ccccc3c2C)S(=O)(=O)c2ccc(C(=O)O)cc2)cc1OC [Compound 525, N-(3-Methyl-benzo[b]thiophen-2-yl)-N-(3,4-dimethoxy-benzyl)-4-carboxy-benzenesulfonamide] | 
1 | 102 | Cc1c(N(Cc2ccc(SC(F)(F)F)cc2)S(=O)(=O)c2ccc(C(=O)O)cc2)sc2ccccc12 [Compound 526, N-(3-Methyl-benzo[b]thiophen-2-yl)-N-(4-trifluoromethylsulfanyl-benzyl)-4-carboxy-benzenesulfonamide] | 
5 | 101 | Cc1c(N(Cc2ccc(F)c(C(F)(F)F)c2)S(=O)(=O)c2cc(C(=O)O)cs2)sc2ccccc12 [Compound 527, N-(3-Methyl-benzo[b]thiophen-2-yl)-N-(4-fluoro-3-trifluoromethyl-benzyl)-4-carboxy-thien-2-ylsulfonamide] | 
16 | 102 | Cc1cc(C(=O)O)sc1S(=O)(=O)N(Cc1ccc(F)c(C(F)(F)F)c1)c1sc2ccccc2c1C [Compound 528, N-(3-Methyl-benzo[b]thiophen-2-yl)-N-(4-fluoro-3-trifluoromethyl-benzyl)-(5-carboxy-3-methyl-thien-2-yl)-sulfonamide] | 
 | 35 | Cc1c(N(Cc2ccc(F)c(C(F)(F)F)c2)S(=O)(=O)c2ccc(C(=O)O)o2)sc2ccccc12 [Compound 529, N-(3-Methyl-benzo[b]thiophen-2-yl)-N-(4-fluoro-3-trifluoromethyl-benzyl)-5-carboxy-furan-2-yl-sulfonamide] | 
 | 54 | COC(=O)c1ccc(S(=O)(=O)N(CCCC(F)(F)F)c2sc3ccccc3c2Cl)cc1 [Compound 530, N-(3-Chloro-benzo[b]thiophen-2-yl)-N-(4,4,4-trifluoro-butyl)-4-carbomethoxy-benzenesulfonamide] | 
8.2 | 105 | O=C(O)c1ccc(S(=O)(=O)N(CCCC(F)(F)F)c2sc3ccccc3c2Cl)cc1 [Compound 537, N-(3-Chloro-benzo[b]thiophen-2-yl)-N-(4,4,4-trifluoro-butyl)-4-carboxy-benzenesulfonamide] | 
4.9 | 105 | O=C(O)c1ccc(S(=O)(=O)N(CCCCC(F)(F)F)c2sc3ccccc3c2Cl)cc1 [Compound 538, N-(3-Chloro-benzo[b]thiophen-2-yl)-N-(5,5,5-trifluoro-pentyl)-4-carboxy-benzenesulfonamide] | 
2.3 | 105 | Cc1c(N(Cc2ccc(F)c(C(F)(F)F)c2)S(=O)(=O)c2ccc(-c3nnn[nH]3)cc2)sc2ccccc12 [Compound 542, N-(3-Methyl-benzo[b]thiophen-2-yl)-N-(4-fluoro-3-trifluoromethyl-benzyl)-4-(1H-tetrazol-5-yl)-benzenesulfonamide] | 

The next lines start with the molecule.

Structure (SMILES) | IC50 [nM] | inhibition at 0.2 µM [%] | % Inh @ 0.2 (μM) [%]
O=c1[nH]c(-c2ccc(S(=O)(=O)N(Cc3ccc(F)c(C(F)(F)F)c3)c3sc4ccccc4c3Br)cc2)no1 [Compound 511, N-(3-Bromo-benzo[b]thiophen-2-yl)-N-(4-fluoro-3-trifluoromethyl-benzyl)-4-(5-oxo-4,5-dihydro-[1,2,4]oxadiazol-3-yl)-benzenesulfonamide] | 3 | 101 | 
O=c1[nH]c(-c2ccc(S(=O)(=O)N(CCCC(F)(F)F)c3cc4ccccc4s3)cc2)no1 [Compound 513, N-(Benzo[b]thiophen-2-yl)-N-(4,4,4-trifluoro-butyl)-4-(5-oxo-4,5-dihydro-[1,2,4]oxadiazol-3-yl)-benzenesulfonamide] | 21 | 101 | 
O=c1[nH]c(-c2ccc(S(=O)(=O)N(CCCC(F)(F)F)c3sc4ccccc4c3Br)cc2)no1 [Compound 514, N-(3-Bromo-benzo[b]thiophen-2-yl)-N-(4,4,4-trifluoro-butyl)-4-(5-oxo-4,5-dihydro-[1,2,4]oxadiazol-3-yl)-benzenesulfonamide] | 46 | 100 | 
CCCCN(c1sc2ccccc2c1C(C)(C)O)S(=O)(=O)c1ccc(C(=O)OC)cc1 [Compound 516, N-(Butyl)-N-(3-(1-hydroxy-1-methyl-ethyl)-benzo[b]thiophen-2-yl)-4-carbomethoxy-benzenesulfonamide] | 19 | 102 | 
Cc1c(N(Cc2ccc3c(c2)OCO3)S(=O)(=O)c2ccc(C(=O)O)cc2)sc2ccccc12 [Compound 523, N-(3-Methyl-benzo[b]thiophen-2-yl)-N—(C-benzo[1,3]dioxol-5-yl-methy)-4-carboxy-benzenesulfonamide] | 2 |  | 101
COC(=O)c1ccc(S(=O)(=O)N(CCCCC(F)(F)F)c2sc3ccccc3c2Cl)cc1 [Compound 531, N-(3-Chloro-benzo[b]thiophen-2-yl)-N-(5,5,5-trifluoro-pentyl)-4-carbomethoxy-benzenesulfonamide] | 46 | 88 | 
CCCCN(c1cc2ccccc2s1)S(=O)(=O)NC [Compound 532, N-(Benzo[b]thiophen-2-yl)-N-(butyl)-N′-methyl-sulfamide] |  | 19 | 
CNS(=O)(=O)N(Cc1ccc(F)c(C(F)(F)F)c1)c1sc2ccccc2c1C [Compound 533, N-(4-Fluoro-3-trifluoromethyl-benzyl)-N-(3-methylbenzo[b]thiophen-2-yl)-N′-methyl-sulfamide] | 32 | 102 | 
CCS(=O)(=O)N(Cc1ccc(F)c(C(F)(F)F)c1)c1sc2ccccc2c1[C@H](C)O [Compound 534] | 2 |  | 102
CCS(=O)(=O)N(Cc1ccc(F)c(C(F)(F)F)c1)c1sc2ccccc2c1[C@@H](C)O [Compound 535] | 1 |  | 102
CCCCN(C1=C(N(C)C)c2ccccc2S1(=O)=O)S(=O)(=O)c1ccc(C(=O)O)cc1 [Compound 536, N-(Butyl)-N-(3-dimethylamino-1,1-dioxo-1H-benzo[b]thiophen-2-yl)-4-carboxy-benzenesulfonamide] | 77 | 89 | 
CCCCN(c1sc2ccccc2c1C)S(=O)(=O)c1ccc(-c2nnn[nH]2)cc1 [Compound 539, N-(3-Methyl-benzo[b]thiophen-2-yl)-N-(butyl)-4-(1H-tetrazol-5-yl)-benzenesulfonamide] | 6.7 | 105 | 
CCCCN(c1sc2ccccc2c1C)S(=O)(=O)c1ccc(C2=NOS(=O)N2)cc1 (stereo not drawn) [Compound 540, N-(3-Methyl-benzo[b]thiophen-2-yl)-N-(butyl)-4-(3H-[1,2,3,5]oxathiadiazole-2-oxide)-benzenesulfonamide] | 12.2 |  | 104.6
CCCCN(c1sc2ccccc2c1C)S(=O)(=O)c1ccc(-c2noc(=O)[nH]2)cc1 [Compound 541, N-(3-Methyl-benzo[b]thiophen-2-yl)-N-(butyl)-4-(5-oxo-4,5-dihydro-[1,2,4]oxadiazol-3-yl)-benzenesulfonamide] | 10.8 | 105 | 
Cc1c(N(Cc2ccc(F)c(C(F)(F)F)c2)S(=O)(=O)c2ccc(C3=NOS(=O)N3)cc2)sc2ccccc12 (stereo not drawn) [Compound 543, N-(3-Methyl-benzo[b]thiophen-2-yl)-N-(4-fluoro-3-trifluoromethyl-benzyl)-4-(3H-[1,2,3,5]oxathiadiazole-2-oxide)-benzenesulfonamide] | 7.2 |  | 104.46
